The source of these data is patent US20240325340A1, “ISOFORM SPECIFIC AGONISTS TARGETING AKT KINASE” (Thomas Jefferson University, priority 2021, published 2024).

The conditions of data set [1]: cited from earlier work.
Data set [2] can be described thus: Compound stability. It counts as physicochemical.
Data set [3] has as its system cells. Put plainly: Cellular toxicity (cells not specified). It counts as cell-based.
Data set [4] addresses recombinant pAkt1 (Homo sapiens, UniProt P31749). Put plainly: Recombinant phospho-Akt dephosphorylation by PP2A or total cellular phosphatase extracts (immunoblot pT308). It is filed as biochemical. The settings on record: 40 μM compound, 30 minutes at 30° C. As for the experimental part: FIG. 1A: Recombinant phospho-Akt (50 ng) were pre-mixed with DMSO or with 40 μM 4H-Chromenes with carboxylate side chain (SC-79 and HA-14) or with 60 μM malononitrile side chain (T625) at 4° C. Then recombinant PP2A (70 ng PP2A-C) or total cellular phosphatase extracts were added and incubated for 30 minutes at 30° C. After incubation, protein extracts were subjected to immunoblot analysis using antibodies detecting phosphorylated Akt (T308), total Akt and PP2A catalytic subunit. FIG. 1B comprises a graph showing the percentage of Akt dephosphorylation at 30 minutes (Dephos. %) (n=6) *P<0.01 vs. DMSO.
(In general: In western blotting, separated proteins are transferred to a membrane and probed.)

Data set [5] has as its system Akt. As to the kind of experiment: Akt activation (phospho-T308, p-PRAS40) in human epithelial cells (Hacat). It counts as cell-based. The settings on record: for efficacy in Akt activation compared to RA97 / length of action in Akt activation compared to RA97 / phosphorylation of Akt substrate PRAS40: 40 μM, serum-starved Hacat; for efficacy in Akt activation compared to RA97 / length of action in Akt activation compared to RA97: 2 hr, 4 hr or 24 hr; for synergy with FBS in Akt activation: 10 μM or 20 μM with 0.25% fetal bovine serum; for synergy with FBS in Akt activation / Akt activation at low dose (phospho-T308): Hacat; for synergy with FBS in Akt activation / Akt activation at low dose (phospho-T308) / phosphorylation of Akt substrate PRAS40: 6 hr; for Akt activation at low dose (phospho-T308): 10 μM or 20 μM. As to the method:
FIGS. 6A-6D illustrate immunoblots for Akt activators converted from non-PAINS Akt antagonists. FIG. 6A: 40 μM of each compound derived from sulfonamides, di-tert butylphenols, or pyridines were incubated in human epithelial cells (A549) for 2.5 hr. Lysates were probed for phospho-T308 and total Akt (tAkt) using ProteinSimple WES digital western system. Insulin was uses as positive control. […] 40 μM of each compound was incubated in serum-starved human epithelial cells (Hacat) for 2 hr, 4 hr, or 24 hr as indicated. Cell lysates were probed for phospho-T308 and total Akt (tAkt). […] 10 μM or 20 μM of T775 or T776 were incubated with or without 0.25% fetal bovine serum (FBS) medium in human epithelial cells (Hacat) for 6 hr. Cell lysates were probed for phospho-T308, total Akt (tAkt), and GAPDH. […] 40 μM of each compound was incubated in serum-starved human epithelial cells (Hacat) for 6 hr. Cell lysates were probed for phospho-T308, total Akt (tAkt), Akt substrate, p-PRAS40, and GAPDH.

The subject of data set [6] is Hacat cells. As to the kind of experiment: Cellular toxicity / cell morphology in Hacat cells after 24 hrs. It counts as cell-based, human. The settings on record: 40 μM.
Data set [7] concerns A549 cells. Put plainly: Cytotoxicity by release of lactate dehydrogenase (LDH) in A549 cells. It counts as cell-based, human. To be noted: 40 μM, 24 hours, serum-free media. As to the method: Cytotoxicity was determined by the release of lactate dehydrogenase (LDH) into cell culture media. A549 cells were incubated with 40 μM of each compound for 24 hours in serum-free media (n=3 for each compound). FIG. 8B: A visual assessment of cell morphology after 24 hrs treatment with 40 μM of each compound in serum-free media. 100× images are shown.

Data set [8] deals with Akt. As to the kind of experiment: Ceramide and cathepsin G blockade of insulin activation of Akt in H9C2 myoblasts. It is filed as cell-based. As to the method:
H9C2 myoblasts or neonatal rat myocytes were treated with neutrophil protease Cathepsin G (0.01 U/mL), 4 hr or with 100 μM C2-Ceramide (100 μM), 2 hr. Then cells were stimulated with insulin with or without 30 μM T625 for 30 minutes. Lysates were immunoblotted with the indicated antibodies.

“Also recorded” adds a separate entry of the source.

Sequence of recombinant pAkt1 (P31749 whole entry): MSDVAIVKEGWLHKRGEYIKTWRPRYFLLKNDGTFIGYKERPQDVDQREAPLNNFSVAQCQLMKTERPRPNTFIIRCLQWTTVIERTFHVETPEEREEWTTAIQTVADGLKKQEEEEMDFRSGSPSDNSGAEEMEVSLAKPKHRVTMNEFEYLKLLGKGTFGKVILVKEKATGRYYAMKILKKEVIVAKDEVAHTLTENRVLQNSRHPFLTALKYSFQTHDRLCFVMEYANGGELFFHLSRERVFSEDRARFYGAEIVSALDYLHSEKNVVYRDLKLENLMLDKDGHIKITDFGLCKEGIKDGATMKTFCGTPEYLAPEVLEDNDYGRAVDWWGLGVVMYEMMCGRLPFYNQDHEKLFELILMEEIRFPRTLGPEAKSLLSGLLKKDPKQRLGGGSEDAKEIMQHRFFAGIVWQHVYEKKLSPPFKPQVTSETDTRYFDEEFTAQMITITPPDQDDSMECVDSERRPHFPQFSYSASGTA

With `CC(C)(Sc1cc(C(C)(C)C)c(O)c(C(C)(C)C)c1)Sc1cc(C(C)(C)C)c(OC(=O)CCC(=O)O)c(C(C)(C)C)c1` [Succinobucol], the insulin sensitivity entry in data set [1] (literature) was “improve insulin sensitivity”. In addition, the drug safety entry in data set [1] (numerous clinical trials of specific diabetic patient populations) is on record as “established drug safety record”.
In the case of `CCOC(=O)C1=C(N)Oc2ccc(Br)cc2C1C(C#N)C(=O)OCC` (centres unmarked) [HA14], the compound stability entry in data set [2] is “highly labile”. For the same molecule, the cellular toxicity entry in data set [3] was “toxic to cells”. Moreover, in data set [4], the “block of recombinant pAkt1 dephosphorylation by PP2A and cellular phosphatases” value is “enhance intrinsic resistance of the Akt kinase to dephosphorylation; also recorded: block recombinant pAkt1 dephosphorylation by PP2A and cellular phosphatases”.
Consider `CCCc1nc2ccc(Cl)cc2c(-c2ccccc2)c1C(=O)OCC` [T748, ethyl 6-chloro-4-phenyl-2-propylquinoline-3-carboxylate], for which, in data set [3], the “toxicity compared to RA97” value is given as “lack of toxicity”. Also, in data set [5], the “efficacy in Akt activation compared to RA97” value (from here on “efficacy … compared to RA97”) was “improved efficacy” and the “length of action in Akt activation compared to RA97” value (“length of action … compared to RA97” below) was “improved length of action”.
For the molecule `CCCc1nc2ccc(Cl)cc2c(CCC(=O)OCC)c1C(=O)OCC` [T775, ethyl 6-chloro-4-(3-ethoxy-3-oxopropyl)-2-propylquinoline-3-carboxylate], the “toxicity compared to RA97” value in data set [3] was “lack of toxicity”. For the same molecule, in data set [5], the “synergy with FBS in Akt activation” value is recorded as “synergize with FBS”, the “Akt activation at low dose (phospho-T308)” value is reported as “activate Akt”, the “efficacy … compared to RA97” value is “improved efficacy” and the “length of action … compared to RA97” value is listed as “improved length of action”. The “phosphorylation of Akt substrate PRAS40” value in data set [5] is recorded as “phosphorylated Akt substrate, PRAS40”. Besides, the cellular toxicity entry in data set [6] is “failed to show significant cellular toxicity”. In addition, the “cellular toxicity (LDH release)” value in data set [7] is recorded as “failed to show significant cellular toxicity”.
In the case of `CCOC(=O)C1=C(N)Oc2ccc(Cl)cc2C1C(C#N)C(=O)OCC` (centres unmarked) [SC79], the compound stability entry in data set [2] is given as “highly labile”. In addition, the cellular toxicity result in data set [3] was “toxic to cells”. The “block of recombinant pAkt1 dephosphorylation by PP2A and cellular phosphatases” value in data set [4] is “enhance intrinsic resistance of the Akt kinase to dephosphorylation; also recorded: block recombinant pAkt1 dephosphorylation by PP2A and cellular phosphatases”.
As to `CCOC(=O)CCc1c(C(=O)OCC)c(C(C)(C)C)nc2ccc(Cl)cc12` [T776, ethyl 2-tert-butyl-6-chloro-4-(3-ethoxy-3-oxopropyl)quinoline-3-carboxylate], the “toxicity compared to RA97” value in data set [3] is recorded as “lack of toxicity”. In data set [5], the “synergy with FBS in Akt activation” value is reported as “synergize with FBS”, the “Akt activation at low dose (phospho-T308)” value is “activate Akt”, the “efficacy … compared to RA97” value was “improved efficacy” and the “length of action … compared to RA97” value is “improved length of action”. Moreover, the “phosphorylation of Akt substrate PRAS40” value in data set [5] is reported as “phosphorylated Akt substrate, PRAS40”. Further, the cellular toxicity entry in data set [6] is listed as “failed to show significant cellular toxicity”. Besides, in data set [7], the “cellular toxicity (LDH release)” value is listed as “failed to show significant cellular toxicity”.
On to `CCCCCCCCCCCCC/C=C/[C@@H](O)[C@H](CO)NC(C)=O` [C2-ceramide, reference compound], for which the “block of insulin activation of Akt” value in data set [8] (100 μM, 2 hr) was “block insulin activation of Akt”.

B1: cathepsin G: neutrophil protease Cathepsin G (protein, UniProt P08311 21-244, looked up)
Cathepsin G: IIGGRESRPHSRPYMAYLQIQSPAGQSRCGGFLVREDFVLTAAHCWGSNINVTLGAHNIQRRENTQQHITARRAIRHPQYNQRTIQNDIMLLQLSRRVRRNRNVNPVALPRAQEGLRPGTLCTVAGWGRVSMRRGTDTLREVQLRVQRDRQCLRIFGSYDPRRQICVGDRRERKAAFKGDSGGPLLCNNVAHGIVSYGKSSGVPPEVFTRVSSFLPWIRTTMRS
As to B1, the “block of insulin activation of Akt” value in data set [8] (0.01 U/mL, 4 hr) is on record as “block insulin activation of Akt”.
